From US11326167B2, “Methods and compositions for treating atherosclerosis” (YALE UNIVERSITY, priority 2016, dated 2022)

Legend:
[1] = system: primary human aortic smooth muscle cells (HASMCs); test: Immunoblot of p-Smad2 and SM-calponin in control and FRS2α knockdown HASMCs treated with SB431542; type: cell-based; settings: SB431542 10 μM
Excerpt: FIGS. 2A-2F are images and plots showing that FRS2α knockdown increases smooth muscle marker gene expression via the TGFβ pathway in primary human aortic smooth muscle cells (HASMCs). […] Blots are representative of four independent experiments. […] R-actin was used for sample loading normalization. […] FIGS. 2D-2F show immunoblots of smooth muscle markers, phosphorylated Smad2 (p-Smad2), and TGFβR1 expression in control and FRS2α knockdown HASMCs treated with SB431542 ([…]), TGFβR2 or Smad2 shRNA lentiviruses. Blots are representative of three independent experiments.
The TGFβR1 kinase inhibitor SB431542 (Sigma S4317) was reconstituted in DMSO (Sigma D2650) and used at a final concentration of 10 μM in cell culture.
Mouse Tgfbr1 and Tgfbr2 shRNA lentiviral constructs were purchased from Sigma. Human FGFR1, human Smad2 and human TGFβR2 shRNA lentiviral constructs were purchased from Sigma and human FRS2α shRNA lentiviral construct was purchased from Open Biosystems. For the production of shRNA lentivirus, 3.7 μg of A8.2, 0.2 μg of VSVG, and 2.1 μg of pLKO.1 carrying the control, FGFR1, FRS2α, Smad2, or TGFβR2 shRNA were co-transfected into 293T cells using X-tremeGENE 9 DNA Transfection Reagent (Roche 06365787001). Forty-eight hours later the medium was harvested, cleared by 0.45 μm filter (PALL Life Sciences PN4184), mixed with polybrene (5 μg/ml) (Sigma H9268), and applied to cells. […]

[2] = system: Apoe^−/− mice; test: Oil Red O atherosclerotic lesion area after 7C1-siTgfbr and/or rapamycin, 4 months of high fat diet; type: in vivo, mouse
Excerpt: FIGS. 45A-45B are a graph and a series of images showing that 7C1-siTgfbr and rapamycin suppress atherosclerosis lesion development in Apoe^−/− mice after 4 months of high fat diet. FIG. 45A: Time frame of 7C1-siTgfbr1/Tgfbr2 lipid nanoparticle and rapamycin injections. FIG. 45B: Representative photomicrographs of Oil Red O-stained atherosclerotic lesions in PBS, 7C1-siLuciferase, DMSO, Rapamycin, or 7C1-siTgfbr treated mice.
FIG. 46 is a histogram illustrating the quantification of atherosclerotic lesions from FIG. 45B. Lesion area quantification. % Lesion area is the lesion area/total area of aorta. All data shown as mean±SD. (***p<0.001; one-way ANOVA with Newman-Keuls post hoc test for multiple comparison correction).
Apoe^−/− and Frs2^SMCKO/Apoe^−/− male mice were fed a Western diet (40% kcal % Fat, 1.25% Cholesterol, 0% Cholic Acid) for 8 or 16 weeks (Research Diets, product #D12108) starting at the age of 8 weeks. After 8 or 16 weeks of being fed a high-fat diet, mice were anesthetized and euthanized. […] The lesions located in the aorta, aortic roots and abdominal aorta were analyzed using Oil Red 0 staining. […] The surface lesion area was quantified with ImageJ software (NIH). […]
FIG. 46 is a histogram illustrating the quantification of atherosclerotic lesions from FIG. 45B. […]

[3] = system: Apoe^−/− and Frs2α^iECKO/Apoe^−/− mice; test: Tolerability of 7C1-let-7 injections: body weight, blood counts, serum lipids, organs, liver function, skin; type: in vivo, mouse; settings: after 16 weeks on high cholesterol diet
Excerpt: FIGS. 24A-24E are a series of graphs showing that 7C1-let-7 mimics treatment have no effect on mouse body weight and serum lipid profile. FIG. 24A: Time frame of gene inactivation and 7C1 lipid nanoparticle injections. FIG. 24B: Serum triglycerides, total cholesterol, and HDL-C levels from Apoe^−/− and Frs2^iECKO/Apoe^−/− mice after 16 weeks on a high cholesterol diet (NS: not significant by one-way ANOVA with Newman-Keuls post-hoc test). FIG. 24C: Individual body weights in each group were measured every week. FIGS. 24D-24E: qPCR analysis of let-7b and Tgfbr1 expression in lung endothelial cells after treatment with 7C1-let-7 particles. All data shown as mean±s.d. (*p<0.05; **p<0.01; ***p<0.001 compared with Luciferase; one-way ANOVA with Newman-Keuls post hoc test for multiple comparison correction). N=4-6 mice per group.
Serum was obtained through centrifugation of the blood for 2 min at 10,000 rpm at 4° C. and stored at −80° C. until each assay was performed. […]
A decline in let-7 miRs expression has been previously linked to activation of TGFβ signaling (Chen et al., 2012, Cell reports 2: 1684-1696; Chen et al, 2014 Science signaling 7, ra90). […] Measurements of the following were taken from mice in each group: body weight, complete blood counts, skin pictures, serum lipid profiles, organ weight, and whole aorta oil red-O staining and quantification (FIGS. 24C, 25, 23, 24B, 27, and 29).

NC(=O)c1ccc(-c2nc(-c3ccc4c(c3)OCO4)c(-c3ccccn3)[nH]2)cc1 [SB431542]
FRS2α knockdown-induced increase in SM-calponin levels [1]: effectively attenuated | FRS2α knockdown-induced increase in p-Smad2 levels [1]: effectively attenuated

CO[C@H]1C[C@@H]2CC[C@@H](C)[C@@](O)(O2)C(=O)C(=O)N2CCCC[C@H]2C(=O)O[C@H]([C@H](C)C[C@@H]2CC[C@@H](O)[C@H](OC)C2)CC(=O)[C@H](C)/C=C(\C)[C@@H](O)[C@@H](OC)C(=O)[C@H](C)C[C@H](C)/C=C/C=C/C=C/1C [rapamycin]
reduction in atherosclerotic lesion (% lesion area = lesion area/total area of aorta) [2]: 58%

mi-let-7bL: lightly 2′-O-methyl modified double stranded let-7b miRNA mimic, 5p UGAGGuAGuAGGUUGUGUGGUU, 3p CuAuAcAACCuACUGCCUUCCC
serum triglycerides, total cholesterol and HDL cholesterol levels (serum lipid profile) [3]: similar

mi-let-7bH: heavily 2′-O-methyl modified double stranded let-7b miRNA mimic, 5p UGAGGuAGuAGGUUGUGUGGUU, 3p cuAuAcAAccuAcuGccuuccc
serum triglycerides, total cholesterol and HDL cholesterol levels (serum lipid profile) [3]: similar
